Measurements published in patent US9453009B2, “Synthesis of deuterated morpholine derivatives” (Concert Pharmaceuticals, Inc., priority 2008, dated 2016).
Like-named read-outs stand apart in the source and are kept apart here. Blank lines part the entries; values can stand above or below the compound they belong to.

Tests used:
[1] = system: mtDNA-encoded protein synthesis; assay: Mitochondria Toxicity Study (Complex IV/Frataxin ratio in HepG2 cells); details: conclusion in words
[2] = in vivo; details: male, Sprague Dawley, rat, 5 mg/kg
[3] = male, Sprague Dawley, rat, in vivo, 5 mg/kg
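For Cmax in this document: drug levels in rat plasma quantified by LC/MS/MS after a combined two-compound formulation, quantitation limit 5 ng/mL with lower values set to zero, parameters from noncompartmental analysis.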
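For Plasma Concentration in this document: drug levels in rat plasma quantified by LC/MS/MS after a combined two-compound formulation, quantitation limit 5 ng/mL with lower values set to zero, parameters from noncompartmental analysis.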
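For Vd in this document: drug levels in rat plasma quantified by LC/MS/MS after a combined two-compound formulation, quantitation limit 5 ng/mL with lower values set to zero, parameters from noncompartmental analysis.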
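For volume of distribution at terminal phase as % of total body water in this document: drug levels in rat plasma quantified by LC/MS/MS after a combined two-compound formulation, quantitation limit 5 ng/mL with lower values set to zero, parameters from noncompartmental analysis.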

concentration at 10 hr ([2]; iv): 0 ng/mL
concentration at 12 hr ([2]; po): 0 ng/mL
volume of distribution at terminal phase as % of total body water ([3]; iv): 113.43%
Plasma Concentration ([3]; po, 12 hr): 0.00 ng/mL
Compound: [2H]C1([2H])CN(c2ccc(N3C[C@H](CNC(C)=O)OC3=O)cc2F)CC([2H])([2H])O1 [compound 10, (S)—N-((3-(3-Fluoro-4-(2,2,6,6-d4-morpholino)phenyl)-2-oxooxazolidin-5-yl)methyl)acetamide]
mitochondria toxicity [1]: comparable to that of linezolid

Vd ([2]; iv): 0.76 L/kg
clearance ([2]; iv): 9.17 mL/min/kg
concentration at 12 hr ([2]; iv): 0 ng/mL
concentration at 24 hr ([2]; iv): 0 ng/mL
AUC(0-inf) ([2]; po): 6940 ng·h/mL
Cmax ([2]; po): 2370 ng/mL
concentration at 10 hr ([2]; po): 0 ng/mL
concentration at 12 hr ([2]; po): 0 ng/mL
concentration at 24 hr ([2]; po): 0 ng/mL
volume of distribution at terminal phase as % of total body water ([3]; iv): 131.34%
Plasma Concentration Mean ([3]; iv, 0.25 hr): 4607.18 ng/mL
Plasma Concentration Mean ([3]; iv, 0.5 hr): 3776.24 ng/mL
Plasma Concentration Mean ([3]; iv, 1 hr): 2796.88 ng/mL
Plasma Concentration Mean ([3]; iv, 2 hr): 1436.16 ng/mL
Plasma Concentration Mean ([3]; iv, 4 hr): 320.08 ng/mL
Plasma Concentration Mean ([3]; iv, 6 hr): 63.05 ng/mL
Plasma Concentration Mean ([3]; iv, 8 hr): 19.45 ng/mL
Plasma Concentration Mean ([3]; iv, 10 hr): 6.33 ng/mL
Plasma Concentration ([3]; iv, 12 hr): 0 ng/mL
Plasma Concentration ([3]; iv, 24 hr): 0 ng/mL
Plasma Concentration Mean ([3]; po, 0.25 hr): 2152.89 ng/mL
Plasma Concentration Mean ([3]; po, 0.5 hr): 2180.60 ng/mL
Plasma Concentration Mean ([3]; po, 1 hr): 1892.82 ng/mL
Plasma Concentration Mean ([3]; po, 2 hr): 1337.56 ng/mL
Plasma Concentration Mean ([3]; po, 4 hr): 612.50 ng/mL
Plasma Concentration Mean ([3]; po, 6 hr): 224.99 ng/mL
Plasma Concentration Mean ([3]; po, 8 hr): 71.33 ng/mL
Plasma Concentration Mean ([3]; po, 10 hr): 19.92 ng/mL
Plasma Concentration Mean ([3]; po, 12 hr): 1.72 ng/mL
Plasma Concentration ([3]; po, 24 hr): 0.00 ng/mL
Compound: CC(=O)NC[C@H]1CN(c2ccc(N3CCOCC3)c(F)c2)C(=O)O1 [linezolid]
